Values quoted from earlier work in publication PMC11243490, “Enzymatic Fructosylation of Phenolic Compounds: A New Alternative for the Development of Antidiabetic Drugs” (Molecules, 2024).
≈ marks a conversion by molar mass, not a printed value.

Tests used:
CYP2C9 = system: CYP2C9; parameters: method as in PMID 27518169; conditions: human liver microsomes
CYP1A2 = system: CYP1A2; parameters: method as in PMID 27518169; conditions: human liver microsomes
[1] = parameters: method as in PMID 30638505, PMID 33992405, doi:10.1016/j.imu.2022.100880; conditions: reported properties
[2] = parameters: method as in PMID 30638505, PMID 33992405, doi:10.1016/j.imu.2022.100880; conditions: reported properties; remark: listed apart in the source
[3] = reported properties
[4] = parameters: method as in PMID 30638505, PMID 33992405, doi:10.1016/j.imu.2022.100880; conditions: reported properties; remark: listed apart in the source
[5] = system: EGFR, SRC, ESR1, and HSP90AA1 diabetic proteins; parameters: method as in PMID 37754241; conditions: range over EGFR
[6] = system: key proteins in type 2 diabetes; parameters: method as in PMID 32258479; conditions: strongest interactions

SMILES | DPPH % Free Radical Scavenging Activity [3] [%] | Solubility [4] [µg/mL] | other results
O=C(O[C@@H]1Cc2c(O)cc(O)cc2O[C@@H]1c1cc(O)c(O)c(O)c1)c1cc(O)c(O)c(O)c1 [EGCG, epigallocatechin gallate] |  |  | inhibition of CYP2C9 (CYP2C9): 7.60 µM; inhibition of CYP1A2 (CYP1A2): 8.93 µM
COc1cc(C=CC(=O)O)ccc1O [FA, 4-hydroxy-3-methoxycinnamic acid] | 70.04 ± 2.3 |  | NO % Free Radical Scavenging Activity [1]: 22.21 ± 1.39%; ABTS % Free Radical Scavenging Activity [2]: 90.69 ± 0.14%
COc1cc(/C=C/C(=O)OC2(CO)OCC(O)C(O)C2O)ccc1O [MFF, β-D-Fructopyranosyl-β-(2→6)-ferulate] | 17.16 ± 0.81 | 8690 ± 450 (≈ 24.4 mM) | NO % Free Radical Scavenging Activity [1]: 3.27 ± 1.02%; ABTS % Free Radical Scavenging Activity [2]: 90.95 ± 0.18%
O=c1c(-c2ccc(O)cc2)coc2c(C3OC(COC4(CO)OC(CO)C(O)C4O)C(O)C(O)C3O)c(O)ccc12 [MFP, β-D-fructofuranosyl-β-(2→6)-puerarin] | 26.2 ± 1.3 | 16200 ± 1700 (≈ 28 mM) | 
O=C(CCc1ccc(O)cc1)c1c(O)cc(O)cc1OC1OC(COC2(CO)OC(CO)C(O)C2O)C(O)C(O)C1O [MFPh, β-D-fructofuranosyl-β-(2→6)-phlorizin] | 44.56 ± 8.4 | 30570 ± 100 (≈ 51.1 mM) | 
O=C(CCc1ccc(O)cc1)c1c(O)cc(O)cc1O[C@@H]1O[C@H](CO)[C@@H](O)[C@H](O)[C@H]1O [PH, phloretin-2′-β-D-glucopyranoside] | 62.13 ± 1.8 | 1930 ± 30 (≈ 4.42 mM) | 
O=c1c(-c2ccc(O)cc2)coc2c([C@@H]3O[C@H](CO)[C@@H](O)[C@H](O)[C@H]3O)c(O)ccc12 [PU, daidzein-8-C-glucoside] | 33.3 | 700 ± 90 (≈ 1.68 mM) | 
CCCCCc1cc(O)c2c(c1)OC(C)(C)c1ccc(C)cc1-2 [cannabinol] |  |  | free binding energy [5]: -7.44 to -6.38 kcal/mol
OC[C@H]1O[C@@H](Oc2cc3c(O)cc(O)cc3[o+]c2-c2ccc(O)c(O)c2)[C@H](O)[C@@H](O)[C@@H]1O [cyanidin 3-glucoside] |  |  | free binding energies [6]: −7.3 to −6.10
OC[C@H]1O[C@@H](Oc2cc3c(O)cc(O)cc3[o+]c2-c2cc(O)c(O)c(O)c2)[C@H](O)[C@@H](O)[C@@H]1O [delphinidin 3-glucoside] |  |  | free binding energies [6]: −7.3 to −6.10
